US8552002B2 (Novartis AG, priority 2004, dated 2013)

Key:
Format in all cases: biochemical
[1] = molecular target: T1, FGFR3 (K650E) (Homo sapiens, UniProt P22607, K650E); assay: Recombinant GST-FGFR-3-K650E tyrosine kinase assay (33P into poly(Glu,Tyr)); conditions: 10 μM; Examples 1 to 169; read-out: FGFR3 (K650E) inhibition at 10 μM
T1 construct: amino acids 411-806 of the cytoplasmic domain of human FGFR-3, N-terminally fused to GST; made in house; host or cells: Sf9 insect cells (baculovirus)
T1 sequence (P22607 411-806 K650E): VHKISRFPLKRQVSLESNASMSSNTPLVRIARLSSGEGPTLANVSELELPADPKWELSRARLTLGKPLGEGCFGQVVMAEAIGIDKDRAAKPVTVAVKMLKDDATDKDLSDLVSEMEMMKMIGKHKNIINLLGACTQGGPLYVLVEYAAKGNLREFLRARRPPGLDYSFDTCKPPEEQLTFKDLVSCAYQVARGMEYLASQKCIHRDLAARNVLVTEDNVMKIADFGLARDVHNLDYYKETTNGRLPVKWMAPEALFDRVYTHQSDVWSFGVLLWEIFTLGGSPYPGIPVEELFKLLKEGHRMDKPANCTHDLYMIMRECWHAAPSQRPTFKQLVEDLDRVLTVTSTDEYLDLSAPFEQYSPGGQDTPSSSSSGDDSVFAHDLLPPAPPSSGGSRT

[2] = molecular target: T2, Tek (Homo sapiens, UniProt Q02763); assay: Recombinant GST-Tek (Tie-2) tyrosine kinase assay (33P into poly(Glu,Tyr)); conditions: Examples 1 to 169
T2 construct: amino acids 773-1124 of the cytoplasmic kinase domain of human Tek, N-terminally fused to GST; made in house; host or cells: Sf9 insect cells (baculovirus)
T2 sequence (Q02763 773-1124): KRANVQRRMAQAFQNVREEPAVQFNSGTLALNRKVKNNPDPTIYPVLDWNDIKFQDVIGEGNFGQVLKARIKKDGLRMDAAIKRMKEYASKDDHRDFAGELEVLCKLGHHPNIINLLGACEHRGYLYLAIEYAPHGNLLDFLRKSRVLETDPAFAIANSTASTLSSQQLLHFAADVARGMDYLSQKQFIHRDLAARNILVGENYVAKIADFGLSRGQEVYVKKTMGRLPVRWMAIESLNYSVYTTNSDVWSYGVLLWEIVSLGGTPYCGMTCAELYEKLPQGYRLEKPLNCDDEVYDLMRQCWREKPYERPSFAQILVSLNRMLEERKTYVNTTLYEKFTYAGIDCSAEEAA
Summary of the method: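 Read-out is filter-bound 33P in poly(Glu,Tyr) 4:1 (10 μg/mL) after 30 min at ambient temperature with 4.0 μM ATP. Enzyme: 150 ng human GST-Tek (aa 773-1124) from insect cells, in Tris pH 7.5 with Mn2+/Mg2+ and vanadate. IC50 fitted linearly over four concentrations, usually 0.01-10 μM.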

[3] = molecular target: T3, KDR (Homo sapiens, UniProt P35968); assay: Inhibitory activity against KDR (VEGF-R2), in vitro data of Examples 170 and 207; conditions: 10 μM; Examples 1 to 169; read-out: KDR inhibition at 10 μM
T3 construct: expressed in transfected cells; host or cells: CHO cells
T3 sequence (P35968 20-1356): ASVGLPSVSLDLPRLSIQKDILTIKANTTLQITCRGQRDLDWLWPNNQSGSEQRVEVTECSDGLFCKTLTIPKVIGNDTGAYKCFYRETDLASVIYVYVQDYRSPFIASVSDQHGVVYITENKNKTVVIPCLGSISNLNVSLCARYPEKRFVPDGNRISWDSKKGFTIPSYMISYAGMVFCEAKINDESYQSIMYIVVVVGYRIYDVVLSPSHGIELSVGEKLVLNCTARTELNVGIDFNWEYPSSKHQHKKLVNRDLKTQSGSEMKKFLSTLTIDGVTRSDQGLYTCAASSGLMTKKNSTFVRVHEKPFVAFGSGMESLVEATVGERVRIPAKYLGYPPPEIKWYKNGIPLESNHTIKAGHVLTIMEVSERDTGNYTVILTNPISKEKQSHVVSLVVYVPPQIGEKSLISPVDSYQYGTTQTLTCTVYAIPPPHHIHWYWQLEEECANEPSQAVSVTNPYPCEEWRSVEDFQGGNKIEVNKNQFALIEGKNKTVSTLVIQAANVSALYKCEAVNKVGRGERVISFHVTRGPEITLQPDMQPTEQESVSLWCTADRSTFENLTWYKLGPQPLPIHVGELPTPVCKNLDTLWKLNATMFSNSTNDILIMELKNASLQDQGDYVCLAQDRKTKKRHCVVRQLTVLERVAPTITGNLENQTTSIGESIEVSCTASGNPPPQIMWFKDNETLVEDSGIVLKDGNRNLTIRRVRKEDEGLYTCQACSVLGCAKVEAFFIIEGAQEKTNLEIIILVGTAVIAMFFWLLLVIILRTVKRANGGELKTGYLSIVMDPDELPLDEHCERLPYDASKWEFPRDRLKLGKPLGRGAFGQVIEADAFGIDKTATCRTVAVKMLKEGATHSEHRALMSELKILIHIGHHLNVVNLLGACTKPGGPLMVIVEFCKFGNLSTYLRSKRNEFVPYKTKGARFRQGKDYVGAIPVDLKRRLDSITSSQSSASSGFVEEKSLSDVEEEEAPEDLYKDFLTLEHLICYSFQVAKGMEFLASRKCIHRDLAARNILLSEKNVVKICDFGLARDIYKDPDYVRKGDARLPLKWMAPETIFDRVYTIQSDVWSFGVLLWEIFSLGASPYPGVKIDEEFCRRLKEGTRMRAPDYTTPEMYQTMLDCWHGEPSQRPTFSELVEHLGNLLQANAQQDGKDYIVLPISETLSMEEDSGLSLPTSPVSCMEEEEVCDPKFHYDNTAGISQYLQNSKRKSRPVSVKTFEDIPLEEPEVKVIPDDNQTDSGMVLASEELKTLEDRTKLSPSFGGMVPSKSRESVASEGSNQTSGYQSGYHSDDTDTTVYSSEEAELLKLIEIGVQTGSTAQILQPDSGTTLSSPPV
Summary of the method: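 KDR tyrosine phosphorylation detected by luminescence after overnight 4° C capture of 20 μg lysate protein with PY20:AP antibody. Lysates came from cells given compound for 2 h at 37° C, then final 20 ng/ml VEGF for 5 min; compound-free medium as control.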

SMILES	inhibition at 10 µM [1]	inhibition at 10 µM [2]	inhibition at 10 µM [3]
COc1cccc(NC(=O)Nc2cc(Nc3cccc(Cl)c3)ncn2)c1 [Example 131, 1-[6-(3-Chloro-phenylamino)-pyrimidin-4-yl]-3-(3-methoxy-Phenyl)-urea]	27 to 100%	12 to 100%	67 to 100%
COc1ccc(OC)c(NC(=O)Nc2cc(Nc3cccc(Cl)c3)ncn2)c1 [Example 132, 1-[6-(3-Chloro-phenylamino)-pyrimidin-4-yl]-3-(2,5-dimethoxy-phenyl)-urea]	27 to 100%	12 to 100%	67 to 100%
O=C(Nc1cc(Nc2cccc(Cl)c2)ncn1)Nc1ccccc1C(F)(F)F [Example 133, 1-[6-(3-Chloro-phenylamino)-pyrimidin-4-yl]-3-(2-trifluoromethyl-phenyl)-urea]	27 to 100%	12 to 100%	67 to 100%
COc1ccc(C)c(NC(=O)Nc2cc(Nc3cccc(Cl)c3)ncn2)c1 [Example 134, 1-[6-(3-Chloro-phenylamino)-pyrimidin-4-yl]-3-(5-methoxy-2-methyl-phenyl)-urea]	27 to 100%	12 to 100%	67 to 100%
O=C(Nc1cccc(Cl)c1)Nc1cc(Nc2cccc(Cl)c2)ncn1 [Example 135, 1-(3-Chloro-phenyl)-3-[6-(3-chloro-phenylamino)-pyrimidin-4-yl]-urea]	27 to 100%	12 to 100%	67 to 100%
COc1cc(NC(=O)Nc2cc(Nc3cccc(Cl)c3)ncn2)cc(OC)c1OC [Example 136, 1-[6-(3-Chloro-phenylamino)-pyrimidin-4-yl]-3-(3,4,5-trimethoxy-phenyl)-urea]	27 to 100%	12 to 100%	67 to 100%
O=C(Nc1cc(Nc2cccc(Cl)c2)ncn1)Nc1c(Cl)cccc1Cl [Example 137, 1-[6-(3-Chloro-phenylamino)-pyrimidin-4-yl]-3-(2,6-dichloro-Phenyl)-urea]	27 to 100%	12 to 100%	67 to 100%
O=C(Nc1ccc(Cl)cc1)Nc1cc(Nc2cccc(Cl)c2)ncn1 [Example 138, 1-(4-Chloro-phenyl)-3-[6-(3-chloro-phenylamino)-pyrimidin-4-yl]-urea]	27 to 100%	12 to 100%	67 to 100%
COc1cc(NC(=O)Nc2cc(Nc3cccc(Cl)c3)ncn2)cc(OC)c1 [Example 139, 1-[6-(3-Chloro-phenylamino)-pyrimidin-4-yl]-3-(3,5-dimethoxy-phenyl)-urea]	27 to 100%	12 to 100%	67 to 100%
Cc1cccc(C)c1NC(=O)Nc1cc(Nc2cccc(Cl)c2)ncn1 [Example 140, 1-[6-(3-Chloro-phenylamino)-pyrimidin-4-yl]-3-(2,6-dimethyl-phenyl)-urea]	27 to 100%	12 to 100%	67 to 100%
O=C(Nc1ccccc1)Nc1cc(Nc2cccc(Cl)c2)ncn1 [Example 141, 1-[6-(3-Chloro-phenylamino)-pyrimidin-4-yl]-3-phenyl-urea]	27 to 100%	12 to 100%	67 to 100%
O=C(Nc1cc(Nc2ccc(OCCN3CCOCC3)cc2)ncn1)Nc1ccccc1Cl [Example 142, 1-(2-Chloro-phenyl)-3-{6-[4-(2-morpholin-4-yl-ethoxy)-phenylamino]-pyrimidin-4-yl}-urea]	27 to 100%	12 to 100%	67 to 100%
CCN(C(=O)Nc1c(Cl)c(OC)cc(OC)c1Cl)c1cc(Nc2ccc(N3CCN(C)CC3)cc2)ncn1 [Example 143, 3-(2,6-Dichloro-3,5-dimethoxy-phenyl)-1-ethyl-1-{6-[4-(4-methyl-piperazin-1-yl)-phenylamino]-pyrimidin-4-yl}-urea]	27 to 100%	12 to 100%	67 to 100%
CCN1CCN(c2ccc(Nc3cc(N(C)C(=O)Nc4c(Cl)c(OC)cc(OC)c4Cl)ncn3)cc2)CC1 [Example 145, 3-(2,6-Dichloro-3,5-dimethoxy-phenyl)-1-{6-[4-(4-ethyl-piperazin-1-yl)-phenylamino]-pyrimidin-4-yl}-1-methyl-urea]	27 to 100%	12 to 100%	67 to 100%
COc1cc(OC)c(Cl)c(NC(=O)N(C)c2cc(Nc3ccc(OCCCN4CCN(C)CC4)cc3)ncn2)c1Cl [Example 146, 3-(2,6-Dichloro-3,5-dimethoxy-phenyl)-1-methyl-1-(6-{4-[3-(4-methyl-piperazin-1-yl)-propoxy]-phenylamino}-pyrimidin-4-yl)-urea]	27 to 100%	12 to 100%	67 to 100%
CCN1CCN(Cc2ccc(Nc3cc(N(C)C(=O)Nc4c(Cl)c(OC)cc(OC)c4Cl)ncn3)cc2)CC1 [Example 149, 3-(2,6-Dichloro-3,5-dimethoxy-phenyl)-1-{6-[4-(4-ethyl-piperazin-1-ylmethyl)-phenylamino]-pyrimidin-4-yl}-1-methyl-urea]	27 to 100%	12 to 100%	67 to 100%
CCN1CCN(Cc2cccc(Nc3cc(N(C)C(=O)Nc4c(Cl)c(OC)cc(OC)c4Cl)ncn3)c2)CC1 [Example 150, 3-(2,6-Dichloro-3,5-dimethoxy-phenyl)-1-{6-[3-(4-ethyl-piperazin-1-ylmethyl)-phenylamino]-pyrimidin-4-yl}-1-methyl-urea]	27 to 100%	12 to 100%	67 to 100%
CCN(C(=O)Nc1c(Cl)c(OC)cc(OC)c1Cl)c1cc(Nc2cccc(CN(C)C)c2)ncn1 [Example 151, 3-(2,6-Dichloro-3,5-dimethoxy-phenyl)-1-[6-(3-dimethylaminomethyl-phenylamino)-pyrimidin-4-yl]-1-ethyl-urea]	27 to 100%	12 to 100%	67 to 100%
CCN(CC)CCOc1ccc(Nc2cc(N(C)C(=O)Nc3c(Cl)c(OC)cc(OC)c3Cl)ncn2)cc1 [Example 152, 3-(2,6-Dichloro-3,5-dimethoxy-phenyl)-1-{6-[4-(2-diethylamino-ethoxy)-phenylamino]-pyrimidin-4-yl}-1-methyl-urea]	27 to 100%	12 to 100%	67 to 100%
COc1cc(OC)c(Cl)c(NC(=O)N(C)c2cc(Nc3ccc(C)nc3C)ncn2)c1Cl [Example 153, 3-(2,6-Dichloro-3,5-dimethoxy-phenyl)-1-[6-(2,6-dimethyl-pyridin-3-ylamino)-pyrimidin-4-yl]-1-methyl-urea]	27 to 100%	12 to 100%	67 to 100%
COc1cc(OC)c(Cl)c(NC(=O)N(C)c2cc(Nc3ccc(C(F)(F)F)nc3)ncn2)c1Cl [Example 154, 3-(2,6-Dichloro-3,5-dimethoxy-phenyl)-1-methyl-1-[6-(6-trifluoromethyl-pyridin-3-ylamino)-pyrimidin-4-yl]-urea]	27 to 100%	12 to 100%	67 to 100%
COc1cc(OC)c(Cl)c(NC(=O)Nc2cc(Nc3ccc(OCCN4CCCC4)cc3)ncn2)c1Cl [Example 155, 1-(2,6-Dichloro-3,5-dimethoxy-phenyl)-3-{6-[4-(2-pyrrolidin-1-yl-ethoxy)-phenylamino]-pyrimidin-4-yl}-urea]	27 to 100%	12 to 100%	67 to 100%
CCN(C(=O)Nc1c(Cl)c(OC)cc(OC)c1Cl)c1cc(Nc2ccc(OCCN3CCCC3)cc2)ncn1 [Example 156, 3-(2,6-Dichloro-3,5-dimethoxy-phenyl)-1-ethyl-1-{6-[4-(2-pyrrolidin-1-yl-ethoxy)-phenylamino]-pyrimidin-4-yl}-urea]	27 to 100%	12 to 100%	67 to 100%
COc1cc(OC)c(Cl)c(NC(=O)Nc2cc(Nc3cccc(CN(C)C)c3)ncn2)c1Cl [Example 157, 1-(2,6-Dichloro-3,5-dimethoxy-phenyl)-3-[6-(3-dimethylaminomethyl-phenylamino)-pyrimidin-4-yl]-urea]	27 to 100%	12 to 100%	67 to 100%
COc1cc(OC)c(Cl)c(NC(=O)Nc2cc(Nc3ccc(OCCN4CCN(C)CC4)cc3)ncn2)c1Cl [Example 158, 1-(2,6-Dichloro-3,5-dimethoxy-phenyl)-3-(6-{4-[2-(4-methyl-piperazin-1-yl)-ethoxy]-phenylamino}-pyrimidin-4-yl)-urea]	27 to 100%	12 to 100%	67 to 100%
COc1cc(OC)c(Cl)c(NC(=O)Nc2cc(Nc3ccc(CN(C)C)c(C(F)(F)F)c3)ncn2)c1Cl [Example 159, 1-(2,6-Dichloro-3,5-dimethoxy-phenyl)-3-[6-(4-dimethylaminomethyl-3-trifluoromethyl-phenylamino)-pyrimidin-4-yl]-urea]	27 to 100%	12 to 100%	67 to 100%
CCN1CCN(c2ccc(Nc3cc(NC(=O)Nc4c(Cl)c(OC)cc(OC)c4Cl)ncn3)cc2)CC1 [Example 160, 1-(2,6-Dichloro-3,5-dimethoxy-phenyl)-3-{6-[4-(4-ethyl-piperazin-1-yl)-phenylamino]-pyrimidin-4-yl}-urea]	27 to 100%	12 to 100%	67 to 100%
